Experimental data as given in patent US9422238B2, “ICMT inhibitors” (National University of Singapore, priority 2012, dated 2016).
Read-outs that look alike come from different tables or passages of the source.

Assays:
PC3 cells [1] = experiment: Colony formation (clonogenic) assay; assay type: cell-based, human; conditions: PC3, 2 weeks; 8-12 1-3 μM, cysmethynil 15-25 μM
Method: A flask ([…]) of PC3 cells in media (DMEM high glucose, 10% fetal bovine serum, 50 μg/mL penicillin, 50 μg/mL streptomycin) was grown to 80-90% confluency. The media was removed by pipetting and the cell layer washed with 1×PBS (5 mL). An aliquot of trypsin (1 mL, 0.25% trypsin-EDTA (1×)-phenol red, Invitrogen) was added to the plate, tapped gently for even distribution and incubated at 37° C., 5% CO2 for 1 min. The plate was quickly viewed under the microscope to confirm that cells have rounded up. Media (10 mL) was then added and the cell suspension transferred to a falcon tube (15 mL). An aliquot (10 μl) was transferred to a hemocytometer for cell counting. The suspension was then diluted to give the desired seeding concentration of 1000 cells per well in a 6-well plate. After seeding, the plate was gently tapped to help cells spread out within the wells. Plates were then incubated for 2 h (37° C., 5% CO2) for cell attachment to take place. The media was removed with a pipette, the cell layer in the well washed with PBS and replaced by a solution of the test compound in 2 mL of DMEM (containing 5% FBS, instead of 10% FBS). Test compounds were prepared in DMSO stock solutions. The final concentration of DMSO in the well was 0.05% v/v. Control plates were also prepared in which no test compound was added but with DMSO maintained at 0.05%. […]

PC3 cells [2] = experiment: Western blot of autophagy marker LC3-II; assay type: cell-based, human; conditions: PC3, 24 h and 48 h
Method: (§1) MDA MB231, PC3 and HepG2 cells were seeded at 65 000 cells/mL per well in […] with DMEM (high glucose, supplemented with 10% FBS, 50 μg/mL penicillin, 50 μg/mL streptomycin) as media. Plates were incubated (24 h, 37° C., 5% CO2) for cells to attach and then treated with test compound (prepared in same media but with 5% FBS) for 24 h or 48 h. Final volume of DMSO per well was kept at 0.05% v/v. After the specified time, the supernatant was removed from the well by pipetting, the cell pellet was trypsinized, and pelleted by centrifugation (150 g, 5 min) and stored in −20° C. Samples were thawed and cells lysed by adding RIPA (radioimmunoprecipitation assay lysis buffer, Thermo Scientific, Rockland, Ill.) (50 μL), kept in ice for 30 min and sonicated for 1 min in an ice bath. Samples were centrifuged (13 000 g, 5 min, 4° C.) to remove cell debris. The supernatant was stored as aliquots at −80° C. and used when required. At the time of use, samples were thawed and protein content determined using the BCA® Protein Assay reagent (Thermo Scientific, Rockland, Ill.). The volume of the lysate was adjusted with deionized water to normalize protein content to 10-20 μg per mL. To this was added Laemmli buffer (4×) and heated to 100° C. for 5 minutes to denature the protein. The samples were resolved by 12% SDS-PAGE gel electrophoresis at 100V for 90 min. The resolved proteins were transferred to polyvinylidene difluoride (PVDF) membranes (Bio-Rad, Singapore) using transfer buffer at 100V for 120 min. Membranes were then treated with 5% blocking buffer (5% non-fat milk and 0.1% Tween-20 in PBS) and probed with the specific antibody (GAPDH, LC3) by incubating the membranes in blocking buffer containing the antibody at 4° C. overnight. After washing the membranes in PBS containing 0.1% Tween 20 (PBST), the membranes were probed with secondary antibodies (horseradish peroxidase anti mouse IgG, Pierce, USA) in blocking buffer at room temperature for 1 h. They were then washed with PBST and developed using an enhanced chemiluminescence procedure (Amersham ECL Advanced Western Blotting Detection Kit, GE, Healthcare, UK). Immunoblots were viewed using the ImageQuant® RT-ECL imager (GE Healthcare) and the image captured with the ImageQuant® TL software. Antibodies were obtained from the following sources: GAPDH (Cell signaling technology, USA), LC3 (Abgent, USA). Test compound was evaluated at 3 concentrations with 2 repeats for each concentration.

HepG2 cells = experiment: Western blot of autophagy marker LC3-II; assay type: cell-based, human; conditions: HepG2, 24 h and 48 h
Method: as §1

MDA MB 231 cells = experiment: Western blot of autophagy marker LC3-II; assay type: cell-based, human; conditions: MDA MB 231, 24 h and 48 h
Method: as §1

[3] = system: Human lung fibroblast IMR90 cells; experiment: Cell viability on non-malignant cells (MTS, 72 h); assay type: cell-based
Method: Cell viability was determined from the expression:
The plot was constrained to ≧0 and ≦100%.
Human lung fibroblast IMR90 cells were purchased from ATCC (Rockville, Md.) and grown in Eagle's Minimal Essential Media (EMEM, Sigma Aldrich, Singapore) at 37° C., 5% CO2. […] Seeding density was maintained at 4000 cells per well.

[4] = IMR-90, further testing, 72 h, mean (SD), read-out: IC50 IMR90

| SMILES | colony formation (PC3 cells [1]) | LC3-II content (immunoblot) (PC3 cells [2]) | LC3-II content (immunoblot) (HepG2 cells) | LC3-II content (immunoblot) (MDA MB 231 cells) | IC50 ([3]; IMR-90, Table 6, mean (SD), read-out: IC50 (μM) IMR90) [µM] | IC50 [3, 4] [µM] |
| --- | --- | --- | --- | --- | --- | --- |
| CCCCCCCCn1cc(CC(N)=O)c2cc(-c3cccc(C)c3)ccc21 [Cysmethynil, 2-[5-(3-methylphenyl)-1-octyl-1H-indolo-3-yl]acetamide, reference compound] | Colony formation was observed with 15 μM cysmethynil but not at higher concentrations (17.5 to 25 μM) | negligible LC3II were observed | LC3II accumulation was evident after 48 hours but not 24 h | LC3-II accumulation was evident in MDA MB 231 cells treated with cysmethynil at 20 and 22.5 μM, but not at 17.5 μM |  |  |
| CCCCCCCCn1cc(CN(CC)CC)c2cc(-c3cnc(N)nc3)ccc21 [Compound 8-12, 5-(3-Diethylaminomethyl-1-octyl-1H-indol-5-yl)-pyrimidin-2-ylamine] | colony formation was evident only at the lowest concentration of 1 μM and not at higher concentrations (1.5 to 3 μM) | increased the content of LC3-II | LC3-II bands were detected in HepG2 cells treated only with 0.5 μM but not 0.25 μM | increased the content of LC3-II | 2.65 | 2.65 |
| CCCCCCCCn1c2c(c3cc(-c4cnc(N)nc4)ccc31)CN(C)CC2 [Compound 305, 8-(2′-amino-pyrimidin-5′-yl)-2-methyl-5-n-octyl-1,2,3,4-tetrahydropyrido[4,3-b]indole] |  |  |  |  |  | 5.29 |
